Patent US10722514B2 (FLX Bio, Inc., priority 2017, dated 2020)

Biological target: T1, recombinant full-length USP7 (Homo sapiens, UniProt Q93009)
T1 construct: A 25 μl reaction volume containing recombinant full-length USP7 (62 pM)
Test: USP7-mediated ubiquitin-rhodamine cleavage assay
Format: biochemical
Conditions: recombinant full-length USP7 62 pM; ubiquitin-rhodamine 100 nM; 30-minute incubation with compound, 1 hour reaction at room temperature; read-out: Potency: USP7 IC50
In short: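 Compounds are first incubated with 62 pM enzyme for 30 min at room temperature in pH 7.3 HEPES buffer containing TCEP and BSA. Cleavage of 100 nM ubiquitin-rhodamine proceeds for 1 h before an acid quench, and IC50 is derived from fluorescence.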

T1 sequence (Q93009 whole entry): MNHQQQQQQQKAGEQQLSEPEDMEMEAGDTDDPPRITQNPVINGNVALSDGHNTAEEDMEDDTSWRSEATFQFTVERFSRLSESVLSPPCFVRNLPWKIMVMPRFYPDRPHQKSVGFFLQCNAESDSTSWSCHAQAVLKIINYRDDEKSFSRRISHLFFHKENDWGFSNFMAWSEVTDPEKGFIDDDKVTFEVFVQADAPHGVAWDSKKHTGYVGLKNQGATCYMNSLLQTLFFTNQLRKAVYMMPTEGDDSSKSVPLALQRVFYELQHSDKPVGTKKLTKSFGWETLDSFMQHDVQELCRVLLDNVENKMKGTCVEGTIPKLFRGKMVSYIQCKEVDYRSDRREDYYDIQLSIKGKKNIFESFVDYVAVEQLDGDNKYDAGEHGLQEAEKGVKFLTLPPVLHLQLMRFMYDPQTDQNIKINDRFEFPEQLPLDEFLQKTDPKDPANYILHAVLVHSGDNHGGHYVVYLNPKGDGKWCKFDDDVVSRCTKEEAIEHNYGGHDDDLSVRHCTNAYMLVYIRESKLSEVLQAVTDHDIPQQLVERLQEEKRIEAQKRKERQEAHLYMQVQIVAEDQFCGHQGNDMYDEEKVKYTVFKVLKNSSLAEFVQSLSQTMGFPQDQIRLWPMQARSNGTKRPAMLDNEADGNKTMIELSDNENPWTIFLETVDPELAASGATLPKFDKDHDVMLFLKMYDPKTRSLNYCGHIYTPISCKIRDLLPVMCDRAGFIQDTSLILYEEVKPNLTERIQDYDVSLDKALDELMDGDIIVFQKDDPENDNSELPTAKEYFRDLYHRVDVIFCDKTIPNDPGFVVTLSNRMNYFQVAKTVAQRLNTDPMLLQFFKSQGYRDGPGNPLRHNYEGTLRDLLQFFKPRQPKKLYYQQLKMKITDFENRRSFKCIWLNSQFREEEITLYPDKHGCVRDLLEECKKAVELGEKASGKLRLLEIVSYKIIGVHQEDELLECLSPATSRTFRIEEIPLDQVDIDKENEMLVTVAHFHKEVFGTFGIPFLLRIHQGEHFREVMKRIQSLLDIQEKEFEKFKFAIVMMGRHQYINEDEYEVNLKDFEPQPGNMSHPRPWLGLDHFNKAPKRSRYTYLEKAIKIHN

IC50 [µM]	Structure (SMILES)
1 to 10	N#Cc1cc(-c2ccnc3cc(CN4C(=O)CCC4=O)sc23)c(O[C@@H]2CNC[C@@H]2F)cc1F [Example 135, 5-(2-((2,5-Dioxopyrrolidin-1-yl)methyl)thieno[3,2-b]pyridin-7-yl)-2-fluoro-4-(((3R,4S)-4-fluoropyrrolidin-3-yl)oxy)benzonitrile]
< 1	CCN1CC[C@@H](Oc2c(C)cc(Cl)cc2-c2ccnc3cc(CN4C(=O)CCC4=O)sc23)[C@@H](C)C1 [Example 307, 1-[[7-[5-chloro-2-[[(3S,4R)-1-ethyl-3-methyl-4-piperidyl]oxy]-3-methyl-phenyl]thieno[3,2-b]pyridin-2-yl]methyl]pyrrolidine-2,5-dione]
1 to 10	Cc1cc(Cl)cc(-c2ccnc3cc(CN4C(=O)CCC4=O)sc23)c1OC1CNCCOC1 (centres unmarked) [Example 271, 1-((7-(2-((1,4-Oxazepan-6-yl)oxy)-5-chloro-3-methylphenyl)thieno[3,2-b]pyridin-2-yl)methyl)pyrrolidine-2,5-dione]
< 1	Cc1cc(Cl)cc(-c2ccnc3cc(CN4C(=O)CSC4=O)sc23)c1O[C@H]1CCCNC1 [Example 249, (S)-3-((7-(5-Chloro-3-methyl-2-(piperidin-3-yloxy)phenyl)thieno[3,2-b]pyridin-2-yl)methyl)thiazolidine-2,4-dione]
< 1	CCN1CCC(Oc2c(C)cc(Cl)cc2-c2ccnc3cc(CN4C(=O)CCC4=O)sc23)CC1 [Example 176, 1-((7-(5-Chloro-2-((1-ethylpiperidin-4-yl)oxy)-3-methylphenyl)thieno[3,2-b]pyridin-2-yl)methyl)pyrrolidine-2,5-dione]
< 1	Cc1cc(Cl)cc(-c2ccnc3cc(CN4C(=O)C5CCCCN5C4=O)sc23)c1O[C@@H]1CNC[C@@H]1F (stereo partly drawn) [Example 138, 2-((7-(5-Chloro-2-(((3R,4S)-4-fluoropyrrolidin-3-yl)oxy)-3-methylphenyl)thieno[3,2-b]pyridin-2-yl)methyl)tetrahydroimidazo[1,5-a]pyridine-1,3(2H,5H)-dione]

The remaining lines, values behind:

Structure (SMILES)	IC50 [µM]
CCC(O)c1cc2ncnc(-c3cc(Cl)cc(C)c3O[C@H]3CCCNC3)c2s1 (stereo partly drawn) [Example 174, 1-(4-(5-Chloro-3-methyl-2-(((S)-piperidin-3-yl)oxy)phenyl)thieno[3,2-d]pyrimidin-6-yl)propan-1-ol]	1 to 10
Cc1cc(C(F)(F)F)cc(-c2ccnc3cc(Cn4c(=O)[nH]cc(F)c4=O)sc23)c1O[C@@H]1CNC[C@@H]1F [Example 136, 5-Fluoro-3-((7-(2-(((3R,4S)-4-fluoropyrrolidin-3-yl)oxy)-3-methyl-5-(trifluoromethyl)phenyl)thieno[3,2-b]pyridin-2-yl)methyl)pyrimidine-2,4(1H,3H)-dione]	< 1
Cc1cc(Cl)cc(-c2ccnc3cc([C@H](C)n4c(=O)ccn(C)c4=O)sc23)c1O[C@H]1CCCNC1 [Example 287, 3-[(1S)-1-[7-[5-chloro-3-methyl-2-[[(3S)-3-piperidyl]oxy]phenyl]thieno[3,2-b]pyridin-2-yl]ethyl]-1-methyl-pyrimidine-2,4-dione; 2,2,2-trifluoroacetic acid]	< 1
Cc1cc(Cl)cc(-c2ncnc3cc(CN4C(=O)C5C(C4=O)C5(C)C)sc23)c1O[C@H]1CCCN[C@H]1C (stereo partly drawn) [Example 359, 3-[[4-[5-chloro-3-methyl-2-[[(2S,3S)-2-methyl-3-piperidyl]oxy]phenyl]thieno[3,2-d]pyrimidin-6-yl]methyl]-6,6-dimethyl-3-azabicyclo[3.1.0]hexane-2,4-dione]	< 1
CN[C@H]1CC[C@@H](Oc2c(C)cc(Cl)cc2-c2ccnc3cc(CO)sc23)CC1 [Example 247, (7-(5-Chloro-3-methyl-2-(((l s,4s)-4-(methylamino)cyclohexyl)oxy)phenyl)thieno[3,2-b]pyridin-2-yl)methanol]	10 to 30
CC(=O)NCc1cc2nccc(-c3cc(Cl)cc(C)c3O[C@@H]3CNC[C@@H]3F)c2s1 [Example 91, N-((7-(5-Chloro-2-(((3R,4S)-4-fluoropyrrolidin-3-yl)oxy)-3-methylphenyl)thieno[3,2-b]pyridin-2-yl)methyl)acetamide]	< 1

Same assay, conditions: recombinant full-length USP7 62 pM; ubiquitin-rhodamine 100 nM; 30-minute incubation, 1 hour reaction at room temperature; read-out: Potency (USP7 IC50)

Structure (SMILES)	IC50 [µM]
Cc1cc(Cl)cc(-c2ccnc3cc(Cn4c(=O)ccn(CC(F)(F)F)c4=O)sc23)c1O[C@@H]1CCN(CC(=O)O)C[C@@H]1C [Example 691, 2-[(3S,4R)-4-[4-chloro-2-[2-[[2,6-dioxo-3-(2,2,2-trifluoroethyl)pyrimidin-1-yl]methyl]thieno[3,2-b]pyridin-7-yl]-6-methyl-phenoxy]-3-methyl-1-piperidyl]acetic acid]	< 1
Cc1cc(Cl)cc(-c2ccnc3cc(Cn4c(=O)ccn(CC(F)(F)F)c4=O)sc23)c1Oc1ccncc1 [Example 681, 3-[[7-[5-chloro-3-methyl-2-(4-pyridyloxy)phenyl]thieno[3,2-b]pyridin-2-yl]methyl]-1-(2,2,2-trifluoroethyl)pyrimidine-2,4-dione; 2,2,2-trifluoroacetic acid]	< 1

Same assay, conditions: recombinant full-length USP7 62 pM; ubiquitin-rhodamine 100 nM; 30-minute pre-incubation, 1 hour reaction at room temperature; read-out: Potency (USP7 IC50)

Structure (SMILES)	IC50 [µM]
Cc1cc(Cl)cc(-c2ccnc3cc(Cn4c(=O)ccn(C)c4=O)sc23)c1OC1CC2CC1N(CCO)C2 (centres unmarked) [Example 461, 3-[[7-[5-chloro-2-[[3-(2-hydroxyethyl)-3-azabicyclo[2.2.1]heptan-5-yl]oxy]-3-methyl-phenyl]thieno[3,2-b]pyridin-2-yl]methyl]-1-methyl-pyrimidine-2,4-dione]	< 1
Cc1cc(Cl)cc(-c2ccnc3cc(Cn4c(=O)ccn(CC(F)(F)F)c4=O)sc23)c1O[C@@H]1CNC[C@H]1C [Example 628, 3-[[7-[5-chloro-3-methyl-2-[(3S,4R)-4-methylpyrrolidin-3-yl]oxy-phenyl]thieno[3,2-b]pyridin-2-yl]methyl]-1-(2,2,2-trifluoroethyl)pyrimidine-2,4-dione]	< 1
Cc1cc(Cl)cc(-c2ncnc3cc(Cn4c(=O)ccn(C)c4=O)sc23)c1O[C@H]1CCNC[C@@H]1F [Example 560, 3-[[4-[5-chloro-2-[[(3S,4S)-3-fluoro-4-piperidyl]oxy]-3-methyl-phenyl]thieno[3,2-d]pyrimidin-6-yl]methyl]-1-methyl-pyrimidine-2,4-dione]	< 1
Cc1cc(Cl)cc(-c2ccnc3cc(Cn4c(=O)ccn(CC(F)(F)F)c4=O)sc23)c1O[C@@H]1CNC[C@@H]1C [Example 625, 3-[[7-[5-chloro-3-methyl-2-[(3S,4S)-4-methylpyrrolidin-3-yl]oxy-phenyl]thieno[3,2-b]pyridin-2-yl]methyl]-1-(2,2,2-trifluoroethyl)pyrimidine-2,4-dione]	< 1
Cc1cc(Cl)cc(-c2ccnc3cc(Cn4c(=O)ccn(C)c4=O)sc23)c1OC1CN2CCC1C2 [Example 530, 3-[[7-[2-[[(1R,3S,4S)-1-azabicyclo[2.2.1]heptan-3-yl]oxy]-5-chloro-3-methyl-phenyl]thieno[3,2-b]pyridin-2-yl]methyl]-1-methyl-pyrimidine-2,4-dione]	< 1
Cc1cc(Cl)cc(-c2ccnc3cc(Cn4c(=O)ccn(C)c4=O)sc23)c1O[C@@H]1CCN(C(C)C)C[C@@H]1C [Example 488, 3-[[7-[5-chloro-2-[[(3S,4R)-1-isopropyl-3-methyl-4-piperidyl]oxy]-3-methyl-phenyl]thieno[3,2-b]pyridin-2-yl]methyl]-1-methyl-pyrimidine-2,4-dione]	< 1
